Assay results taken from paper PMC11239830, “Synthetic macrolides overcoming MLSBK-resistant pathogens” (Cell Discovery, 2024).
In brackets after ≈: the same amount, converted by molar mass. Where two headings read alike, the source gives them in different places.

Columns and labels:
Assay in all cases: MIC, broth microdilution
[1] = test system: H. influenzae; assay type: cell-based, Haemophilus influenzae
Description: (§1) MICs were determined by the microdilution method according to the Clinical and Laboratory Standards Institute guidelines. […] Finally, the 96-well plates were incubated at 37 °C for 16–20 h to observe and record the results. […] The assay for MICs was replicated at least three times.

[2] = test system: S. pneumoniae; assay type: cell-based, Streptococcus pneumoniae
Description: as §1

[3] = test system: M. catarrhalis; assay type: cell-based, Moraxella catarrhalis; conditions: M. catarrhalis 13L332, Ery-S
Description: MICs were determined by the microdilution method according to the Clinical and Laboratory Standards Institute guidelines. Briefly, the stock solution of compounds and the reference antibiotics were diluted 2-fold in sterile 96-well plates with cation-adjusted Mueller-Hinton broth, and mixed with CAMHB-containing bacteria to give a final inoculum of 5 × 10^5 CFU/mL for broth microdilution experiments. […] Finally, the 96-well plates were incubated at 37 °C for 16–20 h to observe and record the results. The lowest concentration at which no bacterial growth could be observed visually was identified as the MICs of the compounds. The assay for MICs was replicated at least three times.

[4] = test system: S. pyogenes; assay type: cell-based, Streptococcus pyogenes; conditions: S. pyogenes 12-206, c-ermTR
Description: as §1

[5] = Haemophilus influenzae, ATCC49247, H. influenzae ATCC49247, Azi-S, read-out: MIC
[6] = Streptococcus pneumoniae, ATCC49619, S. pneumoniae ATCC49619, Ery-S, read-out: MIC
[7] = Streptococcus pneumoniae, S. pneumoniae 05O173, c-ermB, mef, read-out: MIC
[8] = Streptococcus pneumoniae, S. pneumoniae 07P390, c-ermB, read-out: MIC
[9] = Moraxella catarrhalis, read-out: MIC
[10] = Streptococcus pyogenes, read-out: MIC

| MIC [1, 5] [µg/mL] | MIC [2, 6] [µg/mL] | MIC [2, 7] [µg/mL] | MIC [2, 8] [µg/mL] | MIC [3, 9] [µg/mL] | MIC [4, 10] [µg/mL] | MIC ([1]; H. influenzae ATCC49247, Azi-S) [µg/mL] | MIC ([2]; S. pneumoniae 05O173, c-ermB, mef) [µg/mL] | MIC ([2]; S. pneumoniae 07P390, c-ermB) [µg/mL] | MIC ([2]; S. pneumoniae ATCC49619, Ery-S) [µg/mL] | MIC [3] [µg/mL] | MIC [4] [µg/mL] | SMILES |
| --- | --- | --- | --- | --- | --- | --- | --- | --- | --- | --- | --- | --- |
| 8 (≈ 8.15 µM) | ≤ 0.008 | 16 (≈ 16.3 µM) | 0.25 (≈ 0.255 µM) | 1 (≈ 1.02 µM) | 1 (≈ 1.02 µM) |  |  |  |  |  |  | CC[C@H]1OC(=O)[C@H](C)[C@@H](OC(=O)NCCCCCCCC#Cc2ccc3c(=O)c(C(=O)O)cn(C)c3c2)[C@H](C)[C@@H](O[C@@H]2O[C@H](C)C[C@H](N(C)C)[C@H]2O)[C@](C)(OC)C[C@@H](C)C(=O)[C@H](C)[C@H]2NC(=O)O[C@@]21C [89g] |
|  |  |  |  |  |  | 4 (≈ 4.12 µM) | 8 (≈ 8.24 µM) | 0.03 (≈ 0.0309 µM) | ≤ 0.008 | 2 (≈ 2.06 µM) | 0.12 (≈ 0.124 µM) | CC[C@H]1OC(=O)[C@H](C)[C@@H](OC(=O)NCCCCCCCCc2ccc3c(=O)c(C(=O)O)cn(C)c3c2)[C@H](C)[C@@H](O[C@@H]2O[C@H](C)C[C@H](N(C)C)[C@H]2O)[C@](C)(OC)C[C@@H](C)C(=O)[C@H](C)[C@H]2NC(=O)O[C@@]21C [90g] |
| 2 (≈ 2.01 µM) | 0.03 (≈ 0.0301 µM) | 4 (≈ 4.02 µM) | 0.25 (≈ 0.251 µM) | 0.5 (≈ 0.502 µM) | 0.5 (≈ 0.502 µM) |  |  |  |  |  |  | CC[C@H]1OC(=O)[C@H](C)[C@@H](OC(=O)NCCCOCCC#Cc2ccc3c(=O)c(C(=O)O)cn(C4CC4)c3c2)[C@H](C)[C@@H](O[C@@H]2O[C@H](C)C[C@H](N(C)C)[C@H]2O)[C@](C)(OC)C[C@@H](C)C(=O)[C@H](C)[C@H]2NC(=O)O[C@@]21C [95c] |
|  | ≤ 0.008 | 4 (≈ 4.07 µM) | 0.12 (≈ 0.122 µM) | 0.5 (≈ 0.509 µM) | 0.5 (≈ 0.509 µM) |  |  |  |  |  |  | CC[C@H]1OC(=O)[C@H](C)[C@@H](OC(=O)NCCCOCCC#Cc2ccc3c(=O)c(C(=O)O)cn(CC)c3c2)[C@H](C)[C@@H](O[C@@H]2O[C@H](C)C[C@H](N(C)C)[C@H]2O)[C@](C)(OC)C[C@@H](C)C(=O)[C@H](C)[C@H]2NC(=O)O[C@@]21C [95f] |
